Consider two molecules from patent US9155752B2, “Liver function-improving agent” (UENO FINE CHEMICALS INDUSTRY, LTD., priority 2012, dated 2015).

Structures are written as SMILES. “Also recorded” adds a separate entry of the source.

The subject of one experiment is NASH mice. Description: Sirius Red staining of liver, fibrosis area % (Test Example 3). The class given is in vivo. The note with it: for Fibrosis area %, Significant difference: Bonferroni, 5% level, tendency at 10% level; for Fibrosis area % (Sirius Red staining), mean ± standard deviation: 8 weeks of age. From the text:
A solid diet CE-2 (lipid 4.6% by weight, manufactured by CLEA Japan, Inc.) was used as a normal diet. A solid diet, High Fat Diet 32 (lipid 32.0% by weight, sucrose 6.75% by weight, manufactured by CLEA Japan, Inc.), was used as a sucrose-containing high fat diet. As a maltitol-containing high-fat diet, a special diet (lipid 32.0% by weight, maltitol 6.08% by weight; manufactured by CLEA Japan, Inc.) obtained by replacing the total amount (6.75% by weight) of sucrose in a solid diet, High Fat Diet 32, with powdered maltitol (Whole Crystalline Maltitol Ueno 60M (purity of maltitol: 90%), manufactured by Ueno Fine Chemicals Industry Ltd.) was used. Sodium hypochlorite (PURELOX-S, manufactured by OYALOX Co., Ltd.) was added to pure water prepared by Elix-UV pure water producing apparatus, to a final concentration of 0.00009%, so that pure water for use in the test was obtained. An aqueous maltitol solution was prepared by dissolving powdered maltitol (Whole Crystalline Maltitol Ueno 60M (purity of maltitol: 90%), manufactured by Ueno Fine Chemicals Industry Ltd.) in pure water to a concentration of 1.8% (weight/volume). The purity of maltitol in the aqueous maltitol solution was 1.62%. Twenty-one female SPF mice (C57BL/6J, produced by CLEA Japan, Inc.) on day 14 of pregnancy were purchased and acclimation was performed. All animals were allowed to make a natural birth and a born male was used to produce a model. In addition, the weaning was at 4 weeks after birth. Streptozotocin (Sigma-Aldrich Japan K.K.) was adjusted to a concentration of 10 mg/mL with a physiological saline solution (manufactured by Otsuka Pharmaceutical Factory, Inc.) and the solution was subcutaneously administered once to the back of 2-day-old male mice at a dose of 20 μL/mouse (200 μg/mouse). Afterwards, the mother animal took care of the baby until weaning. The weaning was on day 28±2 after birth. After the weaning, a normal diet was supplied ad libitum to animals receiving no streptozotocin (normal mice (group S1 and group 1)), and a sucrose-containing high fat diet was supplied ad libitum to animals receiving streptozotocin (NASH mice (group S2, group 2, group 3, and group 4). A normal diet was supplied ad libitum to normal mice (group 1). With respect to NASH mice, a sucrose-containing high fat diet was supplied ad libitum to the sucrose group (group 2), and a maltitol-containing high fat diet was supplied ad libitum to the maltitol-low dose group (group 3) and the maltitol-high dose group (group 4). An aqueous maltitol solution was supplied ad libitum only to the maltitol-high dose group (group 4) of 5 to 8 weeks of age, and pure water was supplied ad libitum to the groups other than group 4 of 5 to 8 weeks of age. Six male animals per group were assigned to groups S1 and S2, reared up to 5 weeks of age, and then necropsied. Eight male animals per group were assigned to groups 1, 2, 3 and 4, reared up to 8 weeks of age, and then necropsied. At scheduled necropsy of the animals of 5 or 8 weeks of age, all individuals were anesthetized with diethyl ether (manufactured by Sigma-Aldrich Japan K.K.) and a needle through which heparin sodium (Novo Heparin Injection 1000, manufactured by Mochida Pharmaceutical Co., Ltd.) had been passed was punctured to the heart to aspirate the whole blood, leading to euthanasia, followed by harvest of the organ. […]

Experiment [1] concerns C57BL/6 male mice fed high fat diet. Description: Blood AST value and blood ALT value after 8-week feeding (Test Example 1). The experiment is classed as in vivo. Also on record: key to Blood ALT value, Significant difference: *: a significant difference was observed at 1% level of significance relative to group 3. The source says: Eight-week-old C57BL/6 male mice (CLEA Japan, Inc.) were divided at random into groups (each group: four animals) and then used. As a normal diet, solid diet MF (lipid component 5.3%, manufactured by Oriental Yeast Co., Ltd.) was used. As a high-fat diet, solid diet High Fat Diet 32 (lipid component 32.0%, manufactured by CLEA Japan, Inc.) was used. As a sample water, 2.5% by weight of aqueous sucrose solution, 2.25% by weight of aqueous maltitol solution, and 4.5% by weight of aqueous maltitol solution obtained by respectively dissolving, as a test substance, sucrose (manufactured by Wako Pure Chemical Industries, Ltd.) and maltitol (Whole Crystalline Maltitol Ueno 60M, having maltitol purity of 90%, manufactured by Ueno Fine Chemicals Industry, Ltd.) in distilled water were used. Distilled water was used as a negative sample. The sample water was administered by making it available ad libitum and the amount of sample water intake was recorded. The dose of sucrose per day calculated from the concentration of the sample water and the water intake was 3 g per 1 kg of body weight. The dose of maltitol per day calculated in the same manner as above was 2.7 g per 1 kg of body weight in mice receiving 2.25% aqueous maltitol solution, and 4.5 g per 1 kg of body weight in mice receiving 4.5% aqueous maltitol solution. The diet and the sample water (test substance aqueous solution or distilled water) listed in Table 1 were administered to mice in each group, and the animals were fed for 8 weeks. After 8-week test feeding, pentobarbital of 0.5 mg/10 g of body weight was intraperitoneally administered to mice, and blood was collected from the tail vein under deep anesthesia. With respect to the serum from the collected blood sample of mice, blood AST value and blood ALT value which are each an indicator of liver function were measured using a Transaminase C-II Test Wako Kit (Wako Pure Chemical Industries, Ltd.). A significant difference test by the t-test method was performed on blood AST values, blood ALT values, and blood ketone bodies values were evaluated by performing significant difference tests on these values via t-test.

[2] abbreviates: Group 4: high fat diet + 2.25% aqueous maltitol solution ad libitum, 8 weeks (2.7 g/kg/day).
The mark [3] stands for this setting: Group 5: high fat diet + 4.5% aqueous maltitol solution ad libitum, 8 weeks (4.5 g/kg/day).
The mark [4] stands for this setting: Group 3: high fat diet + 2.5% aqueous sucrose solution ad libitum, 8 weeks (3 g/kg/day).

Consider `OC[C@@H](O)[C@@H](O[C@H]1O[C@H](CO)[C@@H](O)[C@H](O)[C@H]1O)[C@H](O)[C@@H](O)CO` [maltitol], for which the “Fibrosis area %, Significant difference” value with NASH mice (Group 3 (low-dose maltitol) vs sucrose group (group 2)) and in the experiment on NASH mice (Group 4 (high-dose maltitol) vs sucrose group (group 2)) was “tendency to be low; also recorded: Tendency to be different” each time. Also, the “Fibrosis area % (Sirius Red staining), mean ± standard deviation” value worked out at 0.89 ± 0.15% in the experiment on NASH mice (Group 3, low-dose maltitol: HFD32-M (maltitol 6.08%) + pure water) and 0.86 ± 0.27% in the experiment on NASH mice (Group 4, high-dose maltitol: HFD32-M (maltitol 6.08%) + aqueous maltitol solution 1.62%). For the same molecule, the “Blood AST value, change in words” value was “tendency to be decreased” in experiment [1] (Group 4 (2.25% aqueous maltitol solution) relative to group 3 (sucrose)) and “decreased to a level equivalent to that in group 1” in experiment [1] (Group 5 (4.5% aqueous maltitol solution) compared with group 1 (normal diet + distilled water)). The “Blood ALT value (Mean ± Standard error)” value in experiment [1] (setting [2]) came out at 41 ± 14 IU/L; in experiment [1] (setting [3]), 11 ± 1 IU/L. Moreover, the figures for the “Blood AST value (Mean ± Standard error)” value in experiment [1] (setting [2]) and in experiment [1] (setting [3]) were 205 ± 77 IU/L and 54 ± 3 IU/L, respectively. Moreover, the “Blood ALT value, change in words” value in experiment [1] (Group 5 (4.5% aqueous maltitol solution) compared to group 3 (sucrose)) is recorded as “significantly decreasing the blood ALT value”. Moreover, the “Blood ALT value, Significant difference” value in experiment [1] (Group 5 (4.5% aqueous maltitol solution) relative to group 3 (sucrose), t-test) was “*”.
Regarding `OC[C@H]1O[C@@](CO)(O[C@H]2O[C@H](CO)[C@@H](O)[C@H](O)[C@H]2O)[C@@H](O)[C@@H]1O` [sucrose, reference compound], the “Fibrosis area % (Sirius Red staining), mean ± standard deviation” value in the experiment on NASH mice (Group 2, sucrose group: HFD32 (sucrose 6.75%) + pure water) is given as 1.09 ± 0.23%. Besides, in experiment [1] (setting [4]), the “Blood ALT value (Mean ± Standard error)” value amounted to 50 ± 12 IU/L and the “Blood AST value (Mean ± Standard error)” value worked out at 244 ± 107 IU/L.
